Measured values as given in ChEMBL document CHEMBL3621075, “Discovery of benzothiazine derivatives as novel, orally-active anti-epileptic drug candidates with broad anticonvulsant effect” (Bioorg Med Chem Lett, 2015).
Calls of active or inactive are those of the source.

Experiments:
[1] = organism: Mus musculus; assay: Anticonvulsant activity in mouse assessed as protection against maximal electroshock-induced seizure; type: functional
[2] = system: Mus musculus; assay: Anticonvulsant activity in ip-dosed mouse assessed as protection against subcutaneous pentylenetetrazol-induced seizure; type: functional; settings: sc
[3] = system: Mus musculus; assay: Anticonvulsant activity in mouse assessed as protection against maximal electroshock-induced seizure at 100 mg/kg; type: functional, organism-based
[4] = system: Mus musculus; assay: Anticonvulsant activity in mouse assessed as protection against subcutaneous pentylenetetrazol-induced seizure at 100 mg/kg; type: functional, organism-based
[5] = system: Mus musculus; assay: Anticonvulsant activity in mouse assessed as protection against maximal electroshock-induced seizure at 50 mg/kg; type: functional, organism-based
[6] = system: Mus musculus; assay: Anticonvulsant activity in mouse assessed as protection against maximal electroshock-induced seizure at 25 mg/kg; type: functional, organism-based
[7] = system: Rattus norvegicus; assay: Anticonvulsant activity in rat amygdala kindling model assessed as change in after-discharge threshold at 30 mg/kg, po; type: functional
[8] = system: Rattus norvegicus; assay: Anticonvulsant activity in rat amygdala kindling model assessed as change in after-discharge threshold at 100 mg/kg, po; type: functional
[9] = system: Rattus norvegicus; assay: Anticonvulsant activity in rat amygdala kindling model assessed as change in after-discharge duration at 30 mg/kg, po; type: functional
[10] = system: Rattus norvegicus; assay: Anticonvulsant activity in rat amygdala kindling model assessed as change in after-discharge duration at 100 mg/kg, po; type: functional
[11] = system: Rattus norvegicus; assay: Anticonvulsant activity in rat amygdala kindling model assessed as decrease in rearing and bilateral forelimb clonus seizure 100 mg/kg, po; type: functional, organism-based
[12] = system: Mus musculus; assay: Anticonvulsant activity in mouse assessed as protection against maximal electroshock-induced seizure at 400 mg/kg; type: functional, organism-based
[13] = system: Mus musculus; assay: Anticonvulsant activity in mouse assessed as protection against subcutaneous pentylenetetrazol-induced seizure at 400 mg/kg; type: functional, organism-based
[14] = Permeability of compound at pH 7.4 by PAMPA assay; type: physicochemical; settings: read-out: permeability
[15] = Permeability of compound at pH 5.0 by PAMPA assay; type: physicochemical; settings: read-out: permeability
[16] = Metabolic stability in rat liver microsome assessed as recovery of parent compound after 30 mins in presence NADPH; type: ADME; settings: liver microsomes, read-out: Drug recovery

| Papp [14] | Papp [15] | remaining at 0.5 h [16] | SMILES | Activity [12] | other results |
| --- | --- | --- | --- | --- | --- |
| – | – | – | O=C1NC(=O)C(c2ccccc2)(c2ccccc2)N1 [PHENYTOIN] | – | ED50 [1]: 8 mg/kg; ED50 [2]: > 300 mg/kg |
| – | – | – | CCNC(=O)C1=C(Cl)c2ccccc2S(=O)(=O)N1C | – | Activity [3]: Active; Activity [4]: Active; Activity [5]: Active; Activity [6]: inactive; Activity [7]: 10%; Activity [8]: 40.5%; Activity [9]: -20%; Activity [10]: -18.2%; Activity [11]: Active |
| – | – | – | CN(C)C(=O)C1=Cc2ccccc2S(=O)(=O)N1C | Active | – |
| – | – | – | O=C(NC1CC1)C1=C(Cl)c2ccccc2S(=O)(=O)N1Cc1ccccc1 | inactive | – |
| 5.9 ×10⁻⁶ cm/s | 5.9 ×10⁻⁶ cm/s | > 90% | CCNC(=O)C1=Cc2ccccc2S(=O)(=O)N1C | Active | Activity [13]: Active |
| 12 ×10⁻⁶ cm/s | 12 ×10⁻⁶ cm/s | > 90% | CN1C(C(=O)NC2CC2)=C(C2CC2)c2ccccc2S1(=O)=O | Active | – |
| – | – | – | NC(=O)N1c2ccccc2C=Cc2ccccc21 [CARBAMAZEPINE] | – | ED50 [1]: 13 mg/kg; ED50 [2]: > 100 mg/kg |
| – | – | – | CN1C(C(=O)NCC(F)F)=Cc2ccccc2S1(=O)=O | Active | – |
| 12 ×10⁻⁶ cm/s | 12 ×10⁻⁶ cm/s | > 90% | CN1C(C(=O)NC2CC2)=C(Cl)c2ccccc2S1(=O)=O | Active | – |
| – | – | – | NS(=O)(=O)Cc1noc2ccccc12 [ZONISAMIDE] | – | ED50 [1]: 20 mg/kg; ED50 [2]: > 500 mg/kg; Activity [7]: 5.1%; Activity [8]: 45.9%; Activity [9]: 7%; Activity [10]: -37.6% |
| 5.9 ×10⁻⁶ cm/s | 5.9 ×10⁻⁶ cm/s | > 90% | CCCNC(=O)C1=Cc2ccccc2S(=O)(=O)N1C | Active | Activity [5]: inactive; Activity [13]: Active |
| – | – | – | CCN1C(C(=O)NC2CC2)=C(Cl)c2ccccc2S1(=O)=O | Active | – |
| 12 ×10⁻⁶ cm/s | 12 ×10⁻⁶ cm/s | > 90% | CC1=C(C(=O)NC2CC2)N(C)S(=O)(=O)c2ccccc21 | Active | Activity [3]: inactive |
| 5.9 ×10⁻⁶ cm/s | 5.9 ×10⁻⁶ cm/s | > 90% | CNC(=O)C1=Cc2ccccc2S(=O)(=O)N1C | Active | – |
| – | – | – | CC(C)NC(=O)C1=Cc2ccccc2S(=O)(=O)N1C | Active | Activity [3]: inactive; Activity [4]: inactive |
| – | – | – | CN1C(C(=O)NC2CC2)=C(c2ccccc2)c2ccccc2S1(=O)=O | – | Activity [13]: inactive |
| 5.9 ×10⁻⁶ cm/s | 5.9 ×10⁻⁶ cm/s | > 90% | CN1C(C(=O)NC2CC2)=Cc2ccccc2S1(=O)=O | Active | Activity [3]: Active; Activity [13]: Active |
| – | – | – | CCC1=C(C(=O)NC2CC2)N(C)S(=O)(=O)c2ccccc21 | Active | – |
| – | – | – | CC(=O)NCCNC(=O)C1=Cc2ccccc2S(=O)(=O)N1C | inactive | – |
